Values quoted from earlier work in patent US20220080020A1, “COMPOSITIONS AND METHODS FOR REDUCING THE TRAN[…] […] USING AN ORAL […] SYSTEM” (priority 2020, published 2022).

Legend:
ACE2 receptor = conditions: prevents covid 19 attachment
[1] = children, xylitol chewing gum or oral solution
[2] = aqueous solution

SMILES: Cc1cc(O)c2c(c1)C(=O)c1cc(O)cc(O)c1C2=O [Emodin]
- competition with the ACE2 receptor (ACE2 receptor): compete with the ACE2 receptor

SMILES: OC[C@@H](O)[C@H](O)[C@@H](O)CO [xylitol]
- reduction in the incidence of otitis [1]: between a thirty and forty-percent reduction
- solubility (saturated solution) [2]: up to 64.2 grams per 100 ml of solution
